# Experimental data taken from patent publication US20230339851A1, “CXCR6 SULFONAMIDE COMPOUNDS” (CHEMOCENTRYX, INC., priority 2022, published 2023).
# Target: T1, human CXCR6 (Homo sapiens, UniProt O00574)
# T1 construct: expressed in transfected cells
# Test: Radioligand Binding Assay (125I-CXCL16 displacement)
# Details: L1.2 cells stably transfected with human CXCR6 cDNA, 0.1 nM 125I-CXCL16, 4° C., three-hour incubation; read-out: Potency (IC50)
# Protocol: L1.2 cells stably transfected with human CXCR6 cDNA ([…]) were incubated at 4° C. in HBSS containing 0.1 % BSA and 0.1 nM of ^125I-CXCL16 plus various concentrations of Compound. Following a three-hour incubation period, cells were aspirated onto polyethyleneimine-treated GF/B glass fiber filters (PerkinElmer, Waltham, MA) with a cell harvester (Tomtec, Hamden, CT) and washed twice with washing buffer (25 mM Hepes, 500 mM NaCl, 1 mM CaCI2, 5 mM MgCI2, pH 7.1). Fifty µl of MicroScint-20 (PerkinElmer, Waltham, MA) was added to each well of the filters, and radioactive emissions (cpm) were measured on a Packard TopCount Scintillation counter (PerkinElmer, Waltham, MA). IC50 values were calculated with GraphPad Prism using 3 parameter nonlinear regression. […]
# T1 sequence (O00574 whole entry): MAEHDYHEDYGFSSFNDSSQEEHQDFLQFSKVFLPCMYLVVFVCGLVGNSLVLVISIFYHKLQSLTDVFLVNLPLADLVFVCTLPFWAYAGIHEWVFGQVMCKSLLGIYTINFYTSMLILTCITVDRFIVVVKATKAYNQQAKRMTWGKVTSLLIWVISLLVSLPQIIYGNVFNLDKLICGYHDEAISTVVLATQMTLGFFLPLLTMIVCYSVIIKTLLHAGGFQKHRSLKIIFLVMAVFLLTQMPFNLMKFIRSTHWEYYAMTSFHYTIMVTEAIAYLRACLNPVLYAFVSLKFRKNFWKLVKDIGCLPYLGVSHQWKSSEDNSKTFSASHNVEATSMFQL
row,Structure (SMILES),IC50 [nM]
1,COc1cc(NC(=O)[C@H]2CC[C@H](OC)CC2)ccc1S(=O)(=O)Nc1cccc(C(F)(F)F)c1 [Example 1.051],2000 to 20000
2,CCOc1cc(NC(=O)CC(C)(O)CC)ccc1S(=O)(=O)Nc1cccc(OC(F)(F)F)c1 (centres unmarked) [Example 1.052],200 to 750
3,CCOc1cc(NC(=O)[C@@H](CO)C2CC2)ccc1S(=O)(=O)Nc1cccc(OC(F)(F)F)c1 [Example 1.053],≤ 200
4,CCOc1cc(NC(=O)[C@@H](CO)C(C)C)ccc1S(=O)(=O)Nc1cccc(Cl)c1Cl [Example 1.054],200 to 750
5,COc1cc(NC(=O)c2ccn[nH]2)ccc1S(=O)(=O)Nc1cccc(C(F)(F)F)c1 [Example 1.055],750 to 2000
6,CCc1cc(NC(=O)C2CCOCC2)ccc1S(=O)(=O)Nc1cccc(OC(F)(F)F)c1 [Example 1.056],≤ 200
7,CCOc1cc(NC(=O)[C@@H](CO)C(C)C)ccc1S(=O)(=O)Nc1ccc(C)c(C(C)C)c1 [Example 1.057],≤ 200
8,CCOc1cc(NC(=O)C2CCOC2)ccc1S(=O)(=O)Nc1cccc(OC(F)(F)F)c1 (centres unmarked) [Example 1.058],200 to 750
9,CCc1cc(NC(=O)[C@@H](O)C(C)C)ccc1S(=O)(=O)Nc1cccc(OC(F)(F)F)c1 [Example 1.059],≤ 200
10,CCOc1cc(NC(=O)CC(O)c2ccnn2C)ccc1S(=O)(=O)Nc1cccc(OC(F)(F)F)c1 (centres unmarked) [Example 1.060],750 to 2000
11,CCOc1cc(NC(=O)C2CC3CCC2O3)ccc1S(=O)(=O)Nc1cccc(OC(F)(F)F)c1 (centres unmarked) [Example 1.061],≤ 200
12,CCOc1cc(NC(=O)[C@@H](CO)C(C)C)ccc1S(=O)(=O)Nc1cccc(C(F)(F)F)c1 [Example 1.062],≤ 200
13,CCOc1cc(NC(=O)C(C)c2ccccc2)ccc1S(=O)(=O)Nc1cccc(OC(F)(F)F)c1 (centres unmarked) [Example 1.064],≤ 200
14,CCOc1cc(NC(=O)[C@@H](CO)C(C)C)ccc1S(=O)(=O)Nc1cccc(OC(F)F)c1 [Example 1.066],≤ 200
15,Cc1cc(NC(=O)c2ccno2)ccc1S(=O)(=O)Nc1cccc(C(F)(F)F)c1 [Example 1.067],200 to 750
16,CCOc1cc(NC(=O)c2ccnn2C)ccc1S(=O)(=O)Nc1cccc(C(F)(F)F)c1 [Example 1.068],≤ 200
17,COc1cc(NC(=O)CC2CCCC2)ccc1S(=O)(=O)Nc1cccc(C(F)(F)F)c1 [Example 1.069],200 to 750
18,Cc1cc(NC(=O)c2ccccc2F)ccc1S(=O)(=O)Nc1cccc(C(F)(F)F)c1 [Example 1.070],2000 to 20000
19,CCCc1cc(NC(=O)[C@@H](O)C(C)C)ccc1S(=O)(=O)Nc1cccc(OC(F)(F)F)c1 [Example 1.071],≤ 200
20,CCOc1cc(NC(=O)C(C)C(O)C2CCOCC2)ccc1S(=O)(=O)Nc1cccc(OC(F)(F)F)c1 (centres unmarked) [Example 1.072],200 to 750
21,CCOc1cc(NC(=O)c2ccccc2)ccc1S(=O)(=O)Nc1cccc(OC(F)(F)F)c1 [Example 1.073],≤ 200
22,CCOc1cc(NC(=O)[C@@H](O)C(C)C)ccc1S(=O)(=O)Nc1cccc(OC(C)C)c1 [Example 1.074],200 to 750
23,CCOc1cc(NC(=O)[C@@H](O)C(C)C)ccc1S(=O)(=O)Nc1cccc(C(F)(F)F)c1F [Example 1.075],2000 to 20000

row,Structure (SMILES),IC50 [nM]
1,CCOc1cc(NC(=O)c2ccnc(OC)c2)ccc1S(=O)(=O)Nc1cccc(OC(F)(F)F)c1 [Example 1.076],200 to 750
2,COc1cc(NC(=O)C2CC3C=CC2C3)ccc1S(=O)(=O)Nc1cccc(C(F)(F)F)c1 (centres unmarked) [Example 1.077],2000 to 20000
3,CC(C)[C@H](O)C(=O)Nc1ccc(S(=O)(=O)Nc2cccc(OC(F)(F)F)c2)c(Cl)c1 [Example 1.078],≤ 200
4,Cc1cc(NC(=O)[C@@H](CO)C2CC2)ccc1S(=O)(=O)Nc1cccc(OC(F)(F)F)c1 [Example 1.079],≤ 200
5,CCOc1cc(NC(=O)[C@@H](CO)c2ccccc2)ccc1S(=O)(=O)Nc1cccc(C2CC2)c1 [Example 1.080],≤ 200
6,CCOc1cc(NC(=O)C2CCC(=O)N2C)ccc1S(=O)(=O)Nc1cccc(OC(F)(F)F)c1 (centres unmarked) [Example 1.081],750 to 2000
7,CCOc1cc(NC(=O)[C@@H](CO)C(C)C)ccc1S(=O)(=O)Nc1cccc(C2CC2)c1 [Example 1.082],≤ 200
8,CCOc1cc(NC(=O)C2(O)CCCCC2)ccc1S(=O)(=O)Nc1cccc(OC(F)(F)F)c1 [Example 1.083],750 to 2000
9,CCOc1cc(NC(=O)[C@@H](O)C(C)C)ccc1S(=O)(=O)Nc1ccc(F)c(C(F)(F)F)c1 [Example 1.084],≤ 200
10,CC(C)[C@H](CO)C(=O)Nc1ccc(S(=O)(=O)Nc2cccc(OC(F)(F)F)c2)c(Cl)c1 [Example 1.085],≤ 200
11,CCOc1cc(NC(=O)[C@@H](N)c2ccccc2)ccc1S(=O)(=O)Nc1cccc(OC(F)(F)F)c1 [Example 1.086],≤ 200
12,CCOc1cc(NC(=O)[C@@H](O)C(C)C)ccc1S(=O)(=O)Nc1cccc(C(F)(F)F)c1 [Example 1.088],≤ 200
13,CCOc1cc(NC(=O)[C@@H](NC(=O)C(F)(F)F)C(C)CC)ccc1S(=O)(=O)Nc1cccc(OC(F)(F)F)c1 (some centres unmarked) [Example 1.089],≤ 200
14,COc1cc(NC(=O)C2=CCCCC2)ccc1S(=O)(=O)Nc1cccc(OC(F)(F)F)c1 [Example 1.090],750 to 2000
15,CCOc1cc(NC(=O)C(O)c2ccc3c(c2)OCO3)ccc1S(=O)(=O)Nc1cccc(OC(F)(F)F)c1 (centres unmarked) [Example 1.091],200 to 750
16,CCOc1cc(NC(=O)C(CO)C2CCOCC2)ccc1S(=O)(=O)Nc1cccc(OC(F)(F)F)c1 (centres unmarked) [Example 1.092],200 to 750
17,Cc1cc(NC(=O)c2ccnnc2)ccc1S(=O)(=O)Nc1cccc(C(F)(F)F)c1 [Example 1.093],750 to 2000
18,CCOc1cc(NC(=O)C(O)C2CCCOC2)ccc1S(=O)(=O)Nc1cccc(OC(F)(F)F)c1 (centres unmarked) [Example 1.094],≤ 200
19,CCOc1cc(NC(=O)C(C)(O)c2ccccc2)ccc1S(=O)(=O)Nc1cccc(OC(F)(F)F)c1 (centres unmarked) [Example 1.095],≤ 200
20,CCOc1cc(NC(=O)[C@H]2CC(C)=C(C)C[C@@H]2C(=O)O)ccc1S(=O)(=O)Nc1cccc(OC(F)(F)F)c1 [Example 1.096],≤ 200
21,CCOc1cc(NC(=O)Cc2ccccc2)ccc1S(=O)(=O)Nc1cccc(OC(F)(F)F)c1 [Example 1.097],≤ 200
22,Cc1cc(NC(=O)c2ccccn2)ccc1S(=O)(=O)Nc1cccc(C(F)(F)F)c1 [Example 1.098],2000 to 20000
23,CCCc1cc(NC(=O)[C@@H](CO)C2CC2)ccc1S(=O)(=O)Nc1cccc(OC(F)(F)F)c1 [Example 1.099],≤ 200

row,Structure (SMILES),IC50 [nM]
1,Cc1cc(NC(=O)c2ccn(C)c(=O)c2)ccc1S(=O)(=O)Nc1cccc(OC(F)(F)F)c1 [Example 1.100],200 to 750
2,CCOc1cc(NC(=O)[C@@H](CO)C(C)C)ccc1S(=O)(=O)Nc1cccc(OC(F)(F)F)c1C [Example 1.101],2000 to 20000
3,CCOc1cc(NC(=O)[C@@H](CO)C(C)C)ccc1S(=O)(=O)Nc1ccc(C)c(C(F)(F)F)c1 [Example 1.102],≤ 200
4,CCOc1cc(NC(=O)c2cc[nH]c(=O)c2)ccc1S(=O)(=O)Nc1cccc(OC(F)(F)F)c1 [Example 1.103],≤ 200
5,CCOc1cc(NC(=O)C(CN)c2ccccc2)ccc1S(=O)(=O)Nc1cccc(OC(F)(F)F)c1 (centres unmarked) [Example 1.104],≤ 200
6,CCOc1cc(NC(=O)[C@@H](O)C(C)C)ccc1S(=O)(=O)Nc1cccc(OC(F)(F)F)c1 [Example 1.105],≤ 200
7,CCOc1cc(NC(=O)CC(O)c2nccn2C)ccc1S(=O)(=O)Nc1cccc(OC(F)(F)F)c1 (centres unmarked) [Example 1.106],2000 to 20000
8,CCOc1cc(NC(=O)[C@@H](NC=O)C(C)CC)ccc1S(=O)(=O)Nc1cccc(OC(F)(F)F)c1 (some centres unmarked) [Example 1.108],≤ 200
9,CCOc1cc(NC(=O)[C@@H](N)CC(C)C)ccc1S(=O)(=O)Nc1cccc(OC(F)(F)F)c1 [Example 1.109],≤ 200
10,CCOc1cc(NC(=O)c2ccn(C)c(=O)c2)ccc1S(=O)(=O)Nc1cccc(OC(F)(F)F)c1 [Example 1.110],≤ 200
11,COc1cc(NC(=O)[C@H]2CCCC[C@H]2O)ccc1S(=O)(=O)Nc1cccc(OC(F)(F)F)c1 [Example 1.111],200 to 750
12,COc1cc(NC(=O)c2ccnn2C)ccc1S(=O)(=O)Nc1cc(C(F)(F)F)cc(C(F)(F)F)c1 [Example 1.112],2000 to 20000
13,CCOc1cc(NC(=O)C(CO)C2CCCCC2)ccc1S(=O)(=O)Nc1cccc(OC(F)(F)F)c1 (centres unmarked) [Example 1.113],≤ 200
14,COc1cc(NC(=O)c2ccnn2C)ccc1S(=O)(=O)Nc1ccc(Cl)cc1 [Example 1.114],200 to 750
15,COc1cc(NC(=O)c2ccns2)ccc1S(=O)(=O)Nc1cccc(C(F)(F)F)c1 [Example 1.115],≤ 200
16,Cc1cc(NC(=O)c2nccn2C)ccc1S(=O)(=O)Nc1cccc(C(F)(F)F)c1 [Example 1.116],2000 to 20000
17,CCOc1cc(NC(=O)c2ccnc(N)c2)ccc1S(=O)(=O)Nc1cccc(OC(F)(F)F)c1 [Example 1.117],≤ 200
18,CCOc1cc(NC(=O)C(CC2CCOCC2)C(=O)O)ccc1S(=O)(=O)Nc1cccc(OC(F)(F)F)c1 (centres unmarked) [Example 1.118],≤ 200
19,CCOc1cc(NC(=O)[C@@H](CO)c2ccccc2)ccc1S(=O)(=O)Nc1cccc(OC(C)C)c1 [Example 1.119],200 to 750
20,CCOc1cc(NC(=O)C2CCC(=O)N(CC)C2)ccc1S(=O)(=O)Nc1cccc(OC(F)(F)F)c1 (centres unmarked) [Example 1.120],2000 to 20000
21,CCOc1cc(NC(=O)[C@@H](CO)c2ccccc2)ccc1S(=O)(=O)Nc1ccc2c(c1)OC(F)(F)O2 [Example 1.121],2000 to 20000
22,COc1cc(NC(=O)CC(C)(C)O)ccc1S(=O)(=O)Nc1cccc(C(F)(F)F)c1 [Example 1.122],2000 to 20000
